Reference: patent US12509450B2, “Solid forms of a dual RAF/MEK inhibitor” (Verastem, Inc., priority 2022, dated 2025)

Tests used:
[1] = Dynamic vapor sorption (DVS) moisture sorption isotherm; format: physicochemical; details: for solid form after DVS (XRPD): XRPD of post-DVS sample
Description: Samples were analyzed using a TA Instruments Q5000SA gravimetric water sorption analyzer. The weight of the sample was continuously monitored and recorded with respect to the relative humidity (RH) and time. Samples of 5-10 mg were placed in a tared, hermetically sealed aluminum DVS pan under ambient conditions. The sample pan was punctured prior to being loaded into the humidity chamber. A moisture sorption isotherm was performed at 25° C. at 10% RH intervals over a 0-90% RH range. Three cycles were carried out. If the mass gain or loss on a sorption step was less than 0.1% over 15 minutes, the next humidity interval would begin. If weight continued to change after 120 minutes at a given step, the step would time out and proceed to the next humidity interval.

[2] = Stability of Form 1 under stressed conditions (XRPD, UPLC purity, KF water content); format: physicochemical; details: for Purity (Week 1): week 1, UPLC; for Purity (Week 4): week 4, UPLC; for Water content (Week 5): week 5, KF
Description: X-ray powder diffraction patterns were obtained using a Bruker D8 equipped with a Cu Kα radiation (40 kV, 40 mA) source (λ=1.54°A), a 9-position sample holder, and a θ-2θ goniometer fitted with a Ge monochromator. The incident beam passes through a 2.0 mm divergence slit followed by a 0.2 mm antiscatter slit. The diffracted beam passes through an 8.0 mm receiving slit with 2.5° Soller slits followed by a LYNXEYE super speed detector. Samples were prepared on polished, zero-background silicon plates and run using a low background, airtight specimen dome.
A Mettler Toledo DL39 Coulometric KF Titrator was used to determine the apparent water content in samples. About 90-100 mg of the solid was used for titration. To limit the exposure of the solution to the air, the titrator opening was closed by a stopper immediately after adding samples. HYDRANAL-Coulomat AD was used as the titrant added at 40% speed. The mixing time used was 30 seconds prior to analysis.
The purity of the sample was determined using the method provided by the Analytical Development at JM. Data were collected using an Agilent […] Series UPLC system and analyzed using Chemstation software.
Form 1 solids were stored in 40° C./75% RH or 30° C./65% RH conditions. The XRPD and UPLC purity were measured at week 1 and week 4 time points. […] Additionally, water content was measured by KF at Week 5.

| Structure (SMILES) | hygroscopicity ([1]; DVS, 25° C.) | weight change between 0-90% RH ([1]; DVS, 25° C.) | solid form after DVS (XRPD) [1] | weight change between 0-80% RH ([1]; DVS, 25° C., 0-80% RH) | weight gain observed between 80-90% RH ([1]; DVS, 25° C.) [%] | weight gain at above 80% RH ([1]; DVS, 25° C., above 80% RH) | XRPD (Week 1) ([2]; 30° C./65% RH) | Purity (Week 1) ([2]; 30° C./65% RH) [%] | XRPD (Week 4) ([2]; 30° C./65% RH) | Purity (Week 4) ([2]; 30° C./65% RH) [%] | Water content (Week 5) ([2]; 30° C./65% RH) [%] | purity determined by UPLC on storage ([2]; 40° C./75% RH or 30° C./65% RH, week 1 and week 4) | water content by KF on storage versus initial ([2]; 40° C./75% RH or 30° C./65% RH, week 5) | XRPD (Week 1) ([2]; 40° C./75% RH) | Purity (Week 1) ([2]; 40° C./75% RH) [%] | XRPD (Week 4) ([2]; 40° C./75% RH) | Purity (Week 4) ([2]; 40° C./75% RH) [%] | Water content (Week 5) ([2]; 40° C./75% RH) [%] |
| --- | --- | --- | --- | --- | --- | --- | --- | --- | --- | --- | --- | --- | --- | --- | --- | --- | --- | --- |
| CNS(=O)(=O)Nc1nccc(Cc2c(C)c3ccc(Oc4ncccn4)cc3oc2=O)c1F.[K+] [Form 10] | hygroscopic | about 5.5% | converted to Form 1 |  |  |  |  |  |  |  |  |  |  |  |  |  |  |  |
| CNS(=O)(=O)Nc1nccc(Cc2c(C)c3ccc(Oc4ncccn4)cc3oc2=O)c1F [Form 8] | slightly hygroscopic |  | converted to Form 1 | up to 0.44% | > 0.27 | at least 1.12% |  |  |  |  |  |  |  |  |  |  |  |  |
| CNS(=O)(=O)Nc1nccc(Cc2c(C)c3ccc(Oc4ncccn4)cc3oc2=O)c1F [Form 1] | slightly hygroscopic | about 1.8% | no form change |  | > 1 |  | Form 1 | 99.2 | Form 1 | 99.2 | 0.6 | remained statistically unchanged | consistent with initial water content | Form 1 | 99.2 | Form 1 | 99.2 | 0.5 |
